Read-outs that look alike come from different tables or passages of the source.
Legend:
[1] = Pharmacokinetic evaluation in SD rats after oral administration; type: in vivo, Sprague-Dawley (SD) rats; settings: oral gavage, 10 mg/kg; for bioavailability: read-out: F (absolute bioavailability)
Experimental: Pharmacokinetic Evaluation of the Compounds of this Invention
Twenty healthy male Sprague-Dawley (SD) rats with body weight of 200-220 g were divided into 5 groups randomly and each group contains 4 rats. Before the experiment, rats were fasted for 12 h with free access to water. The compound Ik (wherein k=2, 5, 18, 34 or 38) of this invention was administered by oral gavage at a dose level of 10 mg/kg. The compounds were prepared with 0.5% CMC-Na containing 1% Tween 80. The dose volume was 10 mL/kg. The rats were afforded unlimited access to food after 2 h of dosing 0.3 mL of blood samples were collected at 0.25 h, 0.5 h, 1.0 h, 2.0 h, 3.0 h, 5.0 h, 7.0 h, 9.0 h, and 24.0 h, respectively, from postocular venous plexes of the rat. The blood samples were placed in heparin-containing tubes and immediately centrifuged at 11000 rpm for 5 min. Plasma was separated and refrigerated at −20° C. until analysis. LC-MS/MS methods were used to quantify plasma concentrations of the compound Ik.

[2] = test system: HCV (J399EM virus) in Huh7.5.1 cells; assay: Inhibition of HCV replication in HCV infected human hepatocellular carcinoma cells (Huh7.5.1), HCV-EGFP fluorescence; type: cell-based; settings: Hepatitis C virus, Huh-7.5.1, 72 h, read-out: HCV infected human hepatocellular carcinoma cells in vitro EC50(nM)
Experimental: In Vitro Inhibitory Activity of Compounds in HCV Replication in HCV Infected Human Hepatocellular Carcinoma Cells (Huh7.5.1)
The preparation of Huh7.5.1cells: Huh 7.5.1 cells were seeded at a 96-well plate with 37 and 5% CO2 for 24 hours incubation.
Virus infection: Using the J399EM virus supernatants (moi≈0.1) to infect Huh7.5.1cells. At the same time, the no virus infected cell will be set up as the control. After 8 hours virus infection, the virus will be washed out with PBS.
Drug treatment: The different doses of samples (i.e. the compound Ik, wherein k=1, 2, 3, . . . 42) were added in J399EM infected Huh7.5.1 cells, the each dose for duplicate. At the same time the no sample added in wells will be set up as the control. The test dose of sample is starting from 25 nM or 400 nM, with quarter dilution, 5 doses of sample will be added in the test wells, respectively, then continued for 72 hours incubation.
HCV-EGFP fluorescence detection: After samples treatment for 72 hours, the autofluorescence of HCV-EGFP were measured by the luminometer with excitation of 488 nm, and emission of 516 nm. The related fluorescence unit (RFU) of samples will be read out and used for calculating the inhibitory rates of compounds in HCV replication.

[3] = test system: HCV replicon (pSGR-399LM) in Huh7 cells; assay: Inhibitory activity in the HCV replicon system (Renilla luciferase); type: cell-based; settings: Hepatitis C virus, Huh-7, pSGR-399LM replicon Huh7 cells, 72 hr
Experimental: The Inhibitory Activity of Compounds in the HCV Replicon System
HCV replicon cell-line: The Huh7 cells were transfected with pSGR-399LM replicon DNA and cultured in the DMEM containing 10% FBS and 0.5 mg/mL G418. The cells were split at 1:3 to 1:5 every 3-4 days. The transfected cells were seeded in 96-well plates and cultured at 37° C., 5% CO2 for 24 hr.
Treatment with samples: To the HCV replicon Huh7 cells-line were added different concentration of the samples (i.e. compound Ik, wherein k=1, 2, 3 . . . 42), the each concentration for duplicate, and set no sample control wells. The concentration started at 400 nM, with quarter dilution to form five different concentrations of samples, that is 400 nM, 100 nM, 25 nM, 6.25 nM and 1.56 nM. The samples were added separately, and continued to incubated for 72 hr.
Fluorescence detection: After 72 hr treatment with sample, the cells were lysed and added with Renilla luciferase substrate to detect luminescent signal. The relative luminescent unit (RLU) in the luminometer was read out and used to calculate the inhibition rate of HCV.

[4] = male, Sprague-Dawley, rat, plasma
[5] = male, Sprague-Dawley, rat, plasma, po, read-out: Cmax
[6] = male, Sprague-Dawley, rat, plasma, po

In the case of COc1ccc2oc3c4ccccc4c(O[C@@H]4C[C@H]5C(=O)N[C@]6(C(=O)NS(=O)(=O)C7CC7)C[C@H]6/C=C\CCCCC[C@H](NC(=O)OC(C)(C)C)C(=O)N5C4)nc3c2c1 [Compound 2, tert-butyl(2R,6S,13aS,14aR,16aS,Z)-14a-(cyclopropylsulfonylcarbamoyl)-2-(8-methoxybenzofuro[3,2-c]isoquinolin-5-yloxy)-5,16-dioxo-1,2,3,5,6,7,8,9,10,11,13a,14,14a,15,16,16a-hexadecahydrocyclopropa[e]pyrrolo[1,2-a][1,4]diazacyclopentadecin-6-yl carbamate], the AUC(0-inf) [1, 4] is reported as 1780 ± 53.7 ng·h/mL, the AUC(0-t) [1, 4] is reported as 158 ± 49.8 ng·h/mL and the Tmax [1, 4] is reported as 24 ± 6 min. It also gave a half-life [1, 4] of 186 ± 78 min, a Cmax [1, 5] of 49.7 ± 11 ng/mL and a bioavailability [1, 6] of 1.8%. It also gave an EC50 [2] of less than 100 nM and an EC50 [3] of less than 100 nM.
Work on CC(C)(C)OC(=O)N[C@H]1CCCCC/C=C\[C@@H]2C[C@@]2(C(=O)NS(=O)(=O)C2CC2)NC(=O)[C@@H]2C[C@@H](Oc3nc4c5cc(Cl)ccc5oc4c4ccccc34)CN2C1=O [Compound 5] yielded an AUC(0-inf) [1, 4] of 3030 ± 1700 ng·h/mL, an AUC(0-t) [1, 4] of 2880 ± 1720 ng·h/mL and a Tmax [1, 4] of 75 ± 30 min. For the same molecule, the half-life [1, 4] was 209 ± 65.4 min, the Cmax [1, 5] was 560 ± 139 ng/mL and the bioavailability [1, 6] was 17.1%. It also gave an EC50 [2] of less than 100 nM and an EC50 [3] of less than 100 nM.
With COc1ccc2c(c1)c(O[C@@H]1C[C@H]3C(=O)N[C@]4(C(=O)NS(=O)(=O)C5CC5)C[C@H]4/C=C\CCCCC[C@H](NC(=O)OC(C)(C)C)C(=O)N3C1)nc1c3ccccc3oc21 [Compound 18] the AUC(0-inf) [1, 4] was 3270 ± 303 ng·h/mL, the AUC(0-t) [1, 4] was 3220 ± 336 ng·h/mL and the Tmax [1, 4] was 102 ± 36 min. The half-life [1, 4] was 228 ± 60 min, the Cmax [1, 5] was 623 ± 60.7 ng/mL and the bioavailability [1, 6] was roughly 36.1%. For the same molecule, the Cmax ([1]; listed as I18, 10 mg/kg) was 623.3 ± 60.7 ng/mL, the EC50 [2] was less than 100 nM and the EC50 [3] was less than 100 nM.
C=C[C@@H]1C[C@]1(NC(=O)[C@@H]1C[C@@H](Oc2nc3c4cc(OC)ccc4oc3c3ccc(Cl)cc23)CN1C(=O)[C@@H](NC(=O)OC(C)(C)C)C(C)(C)C)C(=O)NS(=O)(=O)C1CC1 [Compound 32] gave an EC50 [2] of 100 to 1000 nM and an EC50 [3] of less than 100 nM.
For C=C[C@@H]1C[C@]1(NC(=O)[C@@H]1C[C@@H](Oc2nc3c4cc(Cl)ccc4oc3c3ccc(Cl)cc23)CN1C(=O)[C@@H](NC(=O)OC(C)(C)C)C(C)(C)C)C(=O)NS(=O)(=O)C1CC1 [Compound 33], the EC50 [2] was 100 to 1000 nM and the EC50 [3] was 100 to 1000 nM.
With C=C[C@@H]1C[C@]1(NC(=O)[C@@H]1C[C@@H](Oc2cc(-c3csc(NC(=O)C(C)C)n3)nc3c2oc2ccc(OC)c(Cl)c23)CN1C(=O)[C@@H](NC(=O)OC(C)(C)C)C(C)(C)C)C(=O)NS(=O)(=O)C1CC1 [Compound 34] the AUC(0-inf) [1, 4] was 11 ± 1.1 ng·h/mL, the AUC(0-t) [1, 4] was 9.6 ± 0.9 ng·h/mL and the Tmax [1, 4] was 24 ± 12 min. For the same molecule, the half-life [1, 4] was 30 ± 18 min, the Cmax [1, 5] was 11.4 ± 4.3 ng/mL and the bioavailability [1, 6] was 1.6%. For the same molecule, the EC50 [2] was less than 100 nM and the EC50 [3] was less than 100 nM.
With C=C[C@@H]1C[C@]1(NC(=O)[C@@H]1C[C@@H](Oc2cc(-c3csc(NC(=O)C(C)C)n3)nc3c2oc2ccc(OC)c(Br)c23)CN1C(=O)[C@@H](NC(=O)OC(C)(C)C)C(C)(C)C)C(=O)NS(=O)(=O)C1CC1 [Compound 35] the EC50 [2] was less than 100 nM and the EC50 [3] was less than 100 nM.
For O=C1N[C@]2(C(=O)NS(=O)(=O)C3CC3)C[C@H]2/C=C\CCCCC[C@H](CC(=O)N2CCCCC2)C(=O)N2C[C@H](Oc3cc(-c4ccccc4)nc4c3oc3ccccc34)C[C@@H]12 [Compound 36], the EC50 [2] was 100 to 1000 nM and the EC50 [3] was less than 100 nM.
C=C[C@@H]1C[C@]1(NC(=O)[C@@H]1C[C@@H](Oc2cc(-c3ccccc3)nc3c2oc2ccccc23)CN1C(=O)[C@@H](CC(=O)N1CCCCC1)C(C)(C)C)C(=O)NS(=O)(=O)C1CC1 [Compound 37] gave an EC50 [2] of 100 to 1000 nM and an EC50 [3] of 100 to 1000 nM.
Molecule C=C[C@@H]1C[C@]1(NC(=O)[C@@H]1C[C@@H](Oc2cc(-c3ccccc3)nc3c2oc2ccccc23)CN1C(=O)[C@@H](NC(=O)OC(C)(C)C)C(C)(C)C)C(=O)NS(=O)(=O)C1CC1 [Compound 38] has an AUC(0-inf) [1, 4] of 243 ± 81 ng·h/mL, an AUC(0-t) [1, 4] of 239 ± 81 ng·h/mL and a Tmax [1, 4] of 37.8 ± 15 min. The half-life [1, 4] was 43.2 ± 18 min, the Cmax [1, 5] was 150 ± 42 ng/mL and the bioavailability [1, 6] was 8.7%. It also gave an EC50 [2] of less than 100 nM and an EC50 [3] of less than 100 nM.
Molecule C=C[C@@H]1C[C@]1(NC(=O)[C@@H]1C[C@@H](Oc2cc(-c3cnc(C(C)(C)O)s3)nc3c2oc2ccc(OC)c(Cl)c23)CN1C(=O)[C@@H](NC(=O)OC(C)(C)C)C(C)(C)C)C(=O)NS(=O)(=O)C1CC1 [Compound 39] has an EC50 [2] of less than 100 nM and an EC50 [3] of less than 100 nM.
With C=C[C@@H]1C[C@]1(NC(=O)[C@@H]1C[C@@H](Oc2cc(-c3cnc(C(C)(C)O)s3)nc3c2oc2ccc(OC)c(Br)c23)CN1C(=O)[C@@H](NC(=O)OC(C)(C)C)C(C)(C)C)C(=O)NS(=O)(=O)C1CC1 [Compound 40] the EC50 [2] was less than 100 nM and the EC50 [3] was less than 100 nM.

Reference: patent US8969373B2, “HCV protease inhibitors” (Shanghai Tangrun Pharmaceuticals Co., Ltd., priority 2011, dated 2015)
